Data taken from patent US6437143B1, “Thiazolidone-2 derivatives, 4-diketone substituted, method for obtaining them and pharmaceutical compositions containing same” (Merck Patent Gesellschaft mit beschrankter Haftung, priority 1996, dated 2002).
Where two headings read alike, the source gives them in different places.

Tests used:
[1] = system: non-insulin-dependent diabetes induced in rats by Streptozotocin; assay: Antidiabetic activity by the oral route in the nOSTZ rat model of non-insulin-dependent diabetes; assay type: in vivo; settings: 96 h, nOSTZ diabetic rats; for change in vivo at 20 mg/kg: 20 mg/kg/4d; for change in vivo at 200 mg/kg: 200 mg/kg/4d
Protocol: To determine an antidiabetic activity by the oral route on an experimental model of non-insulin-dependent diabetes induced in rats by Streptozotocin.
The non-insulin-dependent diabetes model is obtained in rats by a neonatal injection (on the day of birth) of Streptozotocin.
The diabetic rats used are 8 weeks old.
The animals are kept, from the day of their birth to the day of the experiment, in an animal house at a regulated temperature of 21 to 22° C., and subjected to a fixed cycle of light (from 7.00 h to 19.00 h) and of darkness (from 19.00 h to 7.00 h). Their diet consisted of a maintenance diet; water and food were provided “ad libitum”, with the exception of the 2 hours of fasting preceding the tests where food is withdrawn.
On the day of the experiment, the rats are treated orally with the test product, and then 90′ later, are anaesthetized with Nembutal. 2 hours after the administration of the product, a 500-μl blood sample is collected from the tail.
The blood is collected over Heparin. All the tubes are placed on ice at the time the samples are collected. These are then centrifuged for 10 minutes at 3000 revolutions/minute to separate the organized elements as rapidly as possible.
The plasma obtained is distributed into 2 aliquots: one for the assay of glycaemia and lactatamia; these assays are carried out immediately the other for the assay of insulinaemia—is stored in the freezer at −20° C. up to the day of the assay They are determined by the glucose oxydase and lactate oxydase technique (Eppendorf Ebio 6666) The plasma insulin is assayed by a radio-immunological method

Structure (SMILES) | melting point | change in vivo at 20 mg/kg ([1]; read-out: % Glycaemia) | change in vivo at 200 mg/kg ([1]; read-out: % Glycaemia) | change in vivo at 20 mg/kg ([1]; read-out: % Insulinaemia) | change in vivo at 200 mg/kg ([1]; read-out: % Insulinaemia)
Cc1ccc(C)c(OCCC2SC(=O)NC2=O)c1 (centres unmarked) (hydrate or solvate) [Compound 18] | 134 to 136 °C |  |  |  | 
O=C1NC(=O)C(CCOc2ccccc2)S1 (centres unmarked) [Compound 1, 5-(2-phenoxyethyl)-2,4-thiazolidinedione] |  | -15% | -26% |  | 
O=C1NC(=O)C(CCOc2ccc(F)cc2)S1 (centres unmarked) [Compound 2, 5-[2-(4-fluorophenoxy)ethyl]-2,4-thiazolidinedione] | 94 to 96 °C | -2% | -19% | -1% | -27%
O=C1NC(=O)C(CCCOc2ccc(F)cc2)S1 (centres unmarked) [Compound 3, 5-[3-(4-fluorophenoxy)propyl]-2,4-thiazolidinedione] | 121 to 123 °C | -17% | -17% | 1% | -37%
O=C1NC(=O)C(CCOc2ccc(Cl)cc2)S1 (centres unmarked) [Compound 4] | 116 to 118 °C | -3% | -17% | -35% | -33%
O=C1NC(=O)C(CCOc2ccc(Br)cc2)S1 (centres unmarked) [Compound 5] | 104 to 106 °C | -10% | -23% | -9% | -62%
N#Cc1ccc(OCCC2SC(=O)NC2=O)cc1 (centres unmarked) [Compound 6, 5-[2-(4-cyanophenoxy)ethyl]-2,4-thiazolidinedione] |  | -20% | -26% | 0% | -49%
O=C1NC(=O)C(CC2COc3ccccc3O2)S1 (centres unmarked) [Compound 7] | 145 °C | 1% | -10% | 6% | -47%
Cc1ccc(OCCC2SC(=O)NC2=O)cc1 (centres unmarked) [Compound 8] | 119 to 121 °C | -3% | -9% | -30% | -26%
O=C1NC(=O)C(CCCCCCOc2ccc(Cl)cc2)S1 (centres unmarked) [Compound 9] | 68 to 70 °C | 10% | -16% | -15% | -30%
O=C1NC(=O)C(CCCCCOc2ccc(F)cc2)S1 (centres unmarked) [Compound 10] | 98 to 100 °C | -1% | -9% | -12% | -48%
O=C1NC(=O)C(CCOc2cccc3ccccc23)S1 (centres unmarked) [Compound 11] | 185 to 187 °C | -12% | -21% | -31% | -23%
O=C1NC(=O)C(C(COc2ccc(F)cc2)c2ccccc2)S1 (centres unmarked) [Compound 12] | 121 °C | -6% | -6% | -35% | -56%
O=C1NC(=O)C(CCOc2cccc(F)c2)S1 (centres unmarked) [Compound 13] | 87 °C | -14% | -2% |  | 
O=C1NC(=O)C(CCOc2ccccc2F)S1 (centres unmarked) [Compound 14] | 138 °C | -4% | -7% | -23% | -51%
O=C1NC(=O)C(CCOc2ccc3ccccc3c2)S1 (centres unmarked) [Compound 15] | 133 °C | -14% | -22% | -9% | -12%
O=C1NC(=O)C(C(O)COc2ccc(F)cc2)S1 (centres unmarked) [Compound 16, 5-{[1-hydroxy-2-(4-fluorophenoxy)]ethyl}-2,4-thiazolidinedione] | 131 to 133 °C | -6% | -22% | -12% | 0%
O=C1NC(=O)C(CC(O)COc2ccc(F)cc2)S1 (centres unmarked) [Compound 17, 5-{[2-hydroxy-3-(4-fluorophenoxy)]propyl}-2,4-thiazolidinedione] | 96 to 98 °C | -20% | -7% | 4% | -5%
Cc1ccc(C)c(OCCC2SC(=O)NC2=O)c1 (centres unmarked) [Compound 18] |  | -8% | -9% | -4% | -17%
CC(COc1ccccc1)C1SC(=O)NC1=O (centres unmarked) [Compound 19, 5-[1-methyl-2-phenoxyethyl]-2,4-thiazolidinedione] | 106 to 108 °C | -6% | -20% | 2% | -10%
COCCc1ccc(OCCC2SC(=O)NC2=O)cc1 (centres unmarked) [Compound 20] | 101 to 103 °C | -10% | -14% |  | 
O=C1NC(=O)C(CCOc2ccc(C(=O)O)cc2)S1 (centres unmarked) [Compound 21] | 234 to 236 °C | -1% | -9% |  | 
